According to PubChem BioAssay (NCI):
Values joined by “and” are separate entries in the source; they are usually repeats but may differ in a detail not shown here. Equal values may be shown once.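 Where inhibition never reached the appropriate level, the endpoint shown equals the highest concentration tested. Otherwise, values were interpolated linearly from a five-concentration, 48-hour dose response in 96-well plates. GI50: concentration for 50% inhibition of growth. The concentration for full growth arrest is given as TGI.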

Tests used:
Test in all cases: growth of human tumour cells (NCI), 48 h
SF-268 CNS = tested on: SF-268 CNS
A549 NSCLC = tested on: A549 NSCLC
SK-MEL-28 melanoma = tested on: SK-MEL-28 melanoma
NCI-H460 lung = tested on: NCI-H460 lung
OVCAR-5 ovarian = tested on: OVCAR-5 ovarian
SK-OV-3 ovarian = tested on: SK-OV-3 ovarian
SNB-78 CNS = tested on: SNB-78 CNS
LOX IMVI melanoma = tested on: LOX IMVI melanoma
OVCAR-3 ovarian = tested on: OVCAR-3 ovarian
SF-539 CNS = tested on: SF-539 CNS
HCT-116 colon = tested on: HCT-116 colon
HCT-15 colon = tested on: HCT-15 colon
786-0 renal = tested on: 786-0 renal
SNB-19 CNS = tested on: SNB-19 CNS
TK-10 renal = tested on: TK-10 renal
SF-295 CNS = tested on: SF-295 CNS
UACC-62 melanoma = tested on: UACC-62 melanoma
COLO 205 colon = tested on: COLO 205 colon
RPMI-8226 leukemia = tested on: RPMI-8226 leukemia
NCI-H522 lung = tested on: NCI-H522 lung
CCRF-CEM leukemia = tested on: CCRF-CEM leukemia
ACHN renal = tested on: ACHN renal
K-562 leukemia = tested on: K-562 leukemia
NCI-H23 lung = tested on: NCI-H23 lung
HCC-2998 colon = tested on: HCC-2998 colon
HOP-62 NSCLC = tested on: HOP-62 NSCLC
DLD-1 colon = tested on: DLD-1 colon
SW-620 colon = tested on: SW-620 colon
MOLT-4 leukemia = tested on: MOLT-4 leukemia
SNB-75 CNS = tested on: SNB-75 CNS
SN12C renal = tested on: SN12C renal
DMS 273 small cell lung = tested on: DMS 273 small cell lung
SK-MEL-5 melanoma = tested on: SK-MEL-5 melanoma
EKVX NSCLC = tested on: EKVX NSCLC
UO-31 renal = tested on: UO-31 renal
XF 498 CNS = tested on: XF 498 CNS
LXFL 529 NSCLC = tested on: LXFL 529 NSCLC
RXF 393 renal = tested on: RXF 393 renal
KM12 colon = tested on: KM12 colon
MALME-3M melanoma = tested on: MALME-3M melanoma
DMS 114 small cell lung = tested on: DMS 114 small cell lung
M19-MEL melanoma = tested on: M19-MEL melanoma
A498 renal = tested on: A498 renal
U251 CNS = tested on: U251 CNS
SK-MEL-2 melanoma = tested on: SK-MEL-2 melanoma
CAKI-1 renal = tested on: CAKI-1 renal
HL-60(TB) leukemia = tested on: HL-60(TB) leukemia
RXF-631 renal = tested on: RXF-631 renal
UACC-257 melanoma = tested on: UACC-257 melanoma
OVCAR-8 ovarian = tested on: OVCAR-8 ovarian
IGROV1 ovarian = tested on: IGROV1 ovarian
OVCAR-4 ovarian = tested on: OVCAR-4 ovarian
HOP-92 NSCLC = tested on: HOP-92 NSCLC
HT29 colon = tested on: HT29 colon
HOP-18 NSCLC = tested on: HOP-18 NSCLC
KM20L2 colon = tested on: KM20L2 colon
SR leukemia = tested on: SR leukemia
M14 melanoma = tested on: M14 melanoma
NCI-H226 lung = tested on: NCI-H226 lung
T-47D breast = tested on: T-47D breast
DU-145 prostate = tested on: DU-145 prostate
HS 578T breast = tested on: HS 578T breast
PC-3 prostate = tested on: PC-3 prostate
MDA-N = tested on: MDA-N
BT-549 breast = tested on: BT-549 breast
MDA-MB-231 breast = tested on: MDA-MB-231 breast

## O=C1C[C@@H]2CCCC[C@@H]2C12SCCS2
SF-268 CNS
  TGI: > 100 µM
A549 NSCLC
  TGI: > 100 µM
SK-MEL-28 melanoma
  TGI: > 100 µM
NCI-H460 lung
  TGI: > 100 µM
OVCAR-5 ovarian
  TGI: > 100 µM
SK-OV-3 ovarian
  TGI: > 100 µM
SNB-78 CNS
  TGI: > 100 µM
LOX IMVI melanoma
  TGI: > 100 µM
OVCAR-3 ovarian
  TGI: > 100 µM
SF-539 CNS
  TGI: > 100 µM
HCT-116 colon
  TGI: > 100 µM
HCT-15 colon
  TGI: > 100 µM
786-0 renal
  TGI: > 100 µM
SNB-19 CNS
  TGI: > 100 µM
TK-10 renal
  TGI: > 100 µM
SF-295 CNS
  TGI: > 100 µM
UACC-62 melanoma
  TGI: > 100 µM
COLO 205 colon
  TGI: > 100 µM
RPMI-8226 leukemia
  TGI: > 100 µM
NCI-H522 lung
  TGI: > 100 µM
CCRF-CEM leukemia
  TGI: > 100 µM
ACHN renal
  TGI: > 100 µM
K-562 leukemia
  TGI: > 100 µM
NCI-H23 lung
  TGI: > 100 µM
HCC-2998 colon
  TGI: > 100 µM
HOP-62 NSCLC
  TGI: > 100 µM
DLD-1 colon
  TGI: > 100 µM
SW-620 colon
  TGI: > 100 µM
MOLT-4 leukemia
  TGI: > 100 µM
SNB-75 CNS
  TGI: > 100 µM
SN12C renal
  TGI: > 100 µM
DMS 273 small cell lung
  TGI: > 100 µM
SK-MEL-5 melanoma
  TGI: > 100 µM
EKVX NSCLC
  TGI: > 100 µM
UO-31 renal
  TGI: > 100 µM
XF 498 CNS
  TGI: > 100 µM
LXFL 529 NSCLC
  TGI: > 100 µM
RXF 393 renal
  TGI: > 100 µM
KM12 colon
  TGI: > 100 µM
MALME-3M melanoma
  TGI: > 100 µM
DMS 114 small cell lung
  TGI: > 100 µM
M19-MEL melanoma
  TGI: > 100 µM
A498 renal
  TGI: > 100 µM
U251 CNS
  TGI: > 100 µM
SK-MEL-2 melanoma
  TGI: > 100 µM
CAKI-1 renal
  TGI: > 100 µM
HL-60(TB) leukemia
  TGI: > 100 µM
RXF-631 renal
  TGI: > 100 µM
UACC-257 melanoma
  TGI: > 100 µM
OVCAR-8 ovarian
  TGI: > 100 µM
IGROV1 ovarian
  TGI: > 100 µM
OVCAR-4 ovarian
  TGI: > 100 µM

## CC(C)(c1ccc(OC#N)cc1)c1ccc(OC#N)cc1
SF-268 CNS
  TGI: > 100 µM
A549 NSCLC
  TGI: > 100 µM
SK-MEL-28 melanoma
  TGI: > 100 µM
NCI-H460 lung
  TGI: > 82.4 µM
OVCAR-5 ovarian
  TGI: > 100 µM
SK-OV-3 ovarian
  TGI: > 100 µM
HOP-92 NSCLC
  TGI: > 100 µM
SNB-78 CNS
  TGI: > 100 µM
LOX IMVI melanoma
  TGI: > 70.8 µM
OVCAR-3 ovarian
  TGI: > 100 µM
SF-539 CNS
  TGI: > 100 µM
HCT-116 colon
  TGI: > 61 µM
HCT-15 colon
  TGI: 39.7 µM
HT29 colon
  TGI: > 100 µM
786-0 renal
  TGI: > 100 µM
SNB-19 CNS
  TGI: > 100 µM
TK-10 renal
  TGI: > 100 µM
SF-295 CNS
  TGI: > 100 µM
UACC-62 melanoma
  TGI: > 100 µM
COLO 205 colon
  TGI: > 67.7 µM
HOP-18 NSCLC
  TGI: > 100 µM
RPMI-8226 leukemia
  TGI: > 72.5 µM
KM20L2 colon
  TGI: > 100 µM
NCI-H522 lung
  TGI: > 31.6 µM
CCRF-CEM leukemia
  TGI: > 73.7 µM
ACHN renal
  TGI: > 100 µM
K-562 leukemia
  TGI: > 100 µM
NCI-H23 lung
  TGI: > 100 µM
HCC-2998 colon
  TGI: > 100 µM
HOP-62 NSCLC
  TGI: > 100 µM
DLD-1 colon
  TGI: > 100 µM
SW-620 colon
  TGI: > 100 µM
MOLT-4 leukemia
  TGI: > 100 µM
SNB-75 CNS
  TGI: > 94.7 µM
SN12C renal
  TGI: > 100 µM
SK-MEL-5 melanoma
  TGI: > 100 µM
SR leukemia
  TGI: 50.5 µM
EKVX NSCLC
  TGI: > 100 µM
UO-31 renal
  TGI: > 100 µM
M14 melanoma
  TGI: > 100 µM
LXFL 529 NSCLC
  TGI: > 100 µM
NCI-H226 lung
  TGI: > 100 µM
RXF 393 renal
  TGI: > 100 µM
KM12 colon
  TGI: > 100 µM
MALME-3M melanoma
  TGI: > 100 µM
DMS 114 small cell lung
  TGI: > 56.9 µM
M19-MEL melanoma
  TGI: > 100 µM
A498 renal
  TGI: > 100 µM
U251 CNS
  TGI: > 100 µM
SK-MEL-2 melanoma
  TGI: > 100 µM
CAKI-1 renal
  TGI: > 100 µM
HL-60(TB) leukemia
  TGI: > 77.7 µM
RXF-631 renal
  TGI: > 100 µM
UACC-257 melanoma
  TGI: > 100 µM
OVCAR-8 ovarian
  TGI: > 100 µM
IGROV1 ovarian
  TGI: > 100 µM
OVCAR-4 ovarian
  TGI: > 100 µM

## Cc1cc2c(C(C)C)c(O)c(O)c(C=O)c2c(O)c1-c1c(C)cc2c(C(C)C)c(O)c(O)c(C=O)c2c1O
SK-MEL-28 melanoma
  GI50: 2.39 µM and 18 µM and 9.01 µM
SK-OV-3 ovarian
  TGI: 8.26 µM and 50.9 µM and 31 µM
SNB-78 CNS
  TGI: 25.8 µM
HOP-18 NSCLC
  TGI: 11.3 µM
T-47D breast
  TGI: 7.76 µM and 50.5 µM and 26.4 µM
KM20L2 colon
  TGI: 11.4 µM
DU-145 prostate
  TGI: 4.04 µM and 36.8 µM and 29.4 µM
HS 578T breast
  TGI: 13.5 µM and 36 µM and 27.8 µM
PC-3 prostate
  TGI: 7.11 µM and 33.8 µM and 24.5 µM
DLD-1 colon
  TGI: 15.5 µM
SW-620 colon
  TGI: 30.8 µM [middle of 4 runs]
DMS 273 small cell lung
  TGI: 18.3 µM
MDA-N
  TGI: > 100 µM
XF 498 CNS
  TGI: 5.55 µM
LXFL 529 NSCLC
  TGI: 8.26 µM
BT-549 breast
  TGI: 7.42 µM and 41.7 µM and 29.8 µM
DMS 114 small cell lung
  TGI: 9.21 µM
M19-MEL melanoma
  TGI: 11.4 µM
RXF-631 renal
  TGI: 25.3 µM
MDA-MB-231 breast
  GI50: 14.8 µM and 6.06 µM
  TGI: 34.5 µM and 16.6 µM
